Assay results published in patent US10723724B2, “Compounds for treating degenerative diseases of central nervous system or brain tumor, and uses thereof” (SUN YAT-SEN UNIVERSITY, priority 2016, dated 2020).

Assays:
[1] = In vitro blood-brain barrier permeability (PBL artificial membrane); format: in vitro ADME
Description: 1) 4 μL of 2% PBL solution was added to the hydrophobic membrane of a MAIPn 4550 96-well plate. During the dripping process, it should be noted that the pipette tip should not touch the surface of the membrane to avoid the damage to the membrane structure.
2) 200 μL of the test sample solution (0.1 mg/ml) was quickly (within 10 min) and quantitatively pipetted, and added to the upside of the membrane of the 96-well plate as a donor compartment. 200 μL of PBS (pH=7.4) was added to the other side of the membrane as an acceptor compartment. It should be noted that the acceptor solution should keep being in full contact with the membrane.
3) The donor compartment was carefully removed upon standing for 120 min at room temperature, and the absorbance of the compound (250-500 nm) in the acceptor compartment was tested by UV spectrometer.
4) 100 μL of the test sample solution was fully mixed with 100 μL of PBS, and the mixture was used as a theoretical equilibrium solution. Its absorbance (250-500 nm) was measured and tested with an acceptor plate.
5) The log Pe value was calculated by the following equation: […]
wherein Vd is the volume of the donor compartment, Va is the volume of the acceptor compartment, A is the membrane area, t is the penetration time, [drug]acceptor is the absorbance of the acceptor compartment, and [drug]equilibrium is the absorbance of theoretical equilibrium. […]

CSNK1G2 (CK1 gamma 2) = molecular target: T1, CSNK1G2 (CK1 gamma 2) (Homo sapiens, UniProt P78368); experiment: Kinase screening service: CSNK1G2; format: biochemical; settings: average of duplicates
T1 construct: purchased Life Technologies Corporation (Kinase Screening Service)
Description: (§1) The inhibitory effect of PT109 on other kinases including SGK and JNK was detected by the Kinase Screening Service of Life Technologies Corporation (The concentration of compound 9 was 10 μM, measurements were performed in duplicates, and the value was represented by an average) to investigate the selectivity of the compound for JNK and SGK1.

CDK1/cyclin B = molecular target: T2, CDK1/cyclin B (Homo sapiens, UniProt P06493); experiment: Kinase screening service: CDK1/cyclin B; format: biochemical; settings: average of duplicates
T2 construct: purchased Life Technologies Corporation (Kinase Screening Service)
Description: as §1

[2] = molecular target: T3, PIK3CD/PIK3R1 (p110 delta/p85 alpha) (Homo sapiens, UniProt O00329); experiment: Kinase screening service: PIK3CD/PIK3R1; format: biochemical; settings: average of duplicates
T3 construct: purchased Life Technologies Corporation (Kinase Screening Service)
T3 sequence (O00329 whole entry): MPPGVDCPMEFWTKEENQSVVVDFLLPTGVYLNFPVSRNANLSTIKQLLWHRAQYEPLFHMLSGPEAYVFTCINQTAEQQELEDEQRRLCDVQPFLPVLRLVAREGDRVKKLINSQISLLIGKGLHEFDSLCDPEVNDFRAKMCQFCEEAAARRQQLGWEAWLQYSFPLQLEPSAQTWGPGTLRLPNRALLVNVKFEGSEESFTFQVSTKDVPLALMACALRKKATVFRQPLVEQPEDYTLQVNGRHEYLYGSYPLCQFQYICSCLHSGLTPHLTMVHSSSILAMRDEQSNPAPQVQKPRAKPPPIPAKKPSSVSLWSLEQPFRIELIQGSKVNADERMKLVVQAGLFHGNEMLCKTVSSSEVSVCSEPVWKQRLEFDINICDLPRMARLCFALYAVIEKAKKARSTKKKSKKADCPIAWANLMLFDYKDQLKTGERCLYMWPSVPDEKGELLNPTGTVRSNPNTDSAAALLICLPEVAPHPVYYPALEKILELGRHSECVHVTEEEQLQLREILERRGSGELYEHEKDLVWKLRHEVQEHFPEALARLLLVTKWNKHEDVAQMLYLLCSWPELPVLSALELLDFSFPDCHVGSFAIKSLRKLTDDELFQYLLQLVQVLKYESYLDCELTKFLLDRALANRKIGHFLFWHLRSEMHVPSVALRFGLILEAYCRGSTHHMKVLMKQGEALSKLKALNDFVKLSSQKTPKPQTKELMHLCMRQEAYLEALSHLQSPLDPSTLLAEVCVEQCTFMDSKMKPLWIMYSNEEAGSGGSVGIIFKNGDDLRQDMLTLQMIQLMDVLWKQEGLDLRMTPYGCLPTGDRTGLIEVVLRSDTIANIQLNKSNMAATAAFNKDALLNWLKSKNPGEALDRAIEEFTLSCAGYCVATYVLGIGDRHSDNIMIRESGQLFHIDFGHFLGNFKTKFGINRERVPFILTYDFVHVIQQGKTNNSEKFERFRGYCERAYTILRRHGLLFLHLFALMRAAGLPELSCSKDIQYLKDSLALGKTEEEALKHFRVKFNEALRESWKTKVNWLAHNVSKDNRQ
T3 sequence (P27986 whole entry partner): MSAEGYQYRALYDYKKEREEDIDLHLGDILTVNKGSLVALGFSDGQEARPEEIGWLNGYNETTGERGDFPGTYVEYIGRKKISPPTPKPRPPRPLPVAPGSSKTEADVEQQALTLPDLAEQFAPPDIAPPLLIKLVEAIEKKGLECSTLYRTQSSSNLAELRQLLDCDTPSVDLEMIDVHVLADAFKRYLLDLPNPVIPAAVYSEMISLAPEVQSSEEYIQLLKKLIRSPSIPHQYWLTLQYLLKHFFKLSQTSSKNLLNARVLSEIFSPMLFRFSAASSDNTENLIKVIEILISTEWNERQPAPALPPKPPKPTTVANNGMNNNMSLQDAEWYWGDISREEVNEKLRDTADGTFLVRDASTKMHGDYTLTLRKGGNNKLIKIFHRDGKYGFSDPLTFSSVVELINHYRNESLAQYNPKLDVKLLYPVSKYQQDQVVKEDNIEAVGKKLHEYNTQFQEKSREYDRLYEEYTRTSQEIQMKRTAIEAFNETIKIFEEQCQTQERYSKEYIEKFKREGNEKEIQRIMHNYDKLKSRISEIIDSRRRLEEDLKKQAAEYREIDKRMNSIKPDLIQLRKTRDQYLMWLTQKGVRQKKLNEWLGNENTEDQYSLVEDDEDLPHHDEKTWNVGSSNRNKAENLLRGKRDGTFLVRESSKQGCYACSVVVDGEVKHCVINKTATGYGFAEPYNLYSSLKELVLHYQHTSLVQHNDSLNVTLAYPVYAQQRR
Description: as §1

[3] = molecular target: T4, PIK3CA/PIK3R1 (p110 alpha/p85 alpha) (Homo sapiens, UniProt P42336); experiment: Kinase screening service: PIK3CA/PIK3R1; format: biochemical; settings: average of duplicates
T4 construct: purchased Life Technologies Corporation (Kinase Screening Service)
Description: as §1

CSNK1G1 (CK1 gamma 1) = molecular target: T5, CSNK1G1 (CK1 gamma 1) (Homo sapiens, UniProt Q9HCP0); experiment: Kinase screening service: CSNK1G1; format: biochemical; settings: average of duplicates
T5 construct: purchased Life Technologies Corporation (Kinase Screening Service)
T5 sequence (Q9HCP0 whole entry): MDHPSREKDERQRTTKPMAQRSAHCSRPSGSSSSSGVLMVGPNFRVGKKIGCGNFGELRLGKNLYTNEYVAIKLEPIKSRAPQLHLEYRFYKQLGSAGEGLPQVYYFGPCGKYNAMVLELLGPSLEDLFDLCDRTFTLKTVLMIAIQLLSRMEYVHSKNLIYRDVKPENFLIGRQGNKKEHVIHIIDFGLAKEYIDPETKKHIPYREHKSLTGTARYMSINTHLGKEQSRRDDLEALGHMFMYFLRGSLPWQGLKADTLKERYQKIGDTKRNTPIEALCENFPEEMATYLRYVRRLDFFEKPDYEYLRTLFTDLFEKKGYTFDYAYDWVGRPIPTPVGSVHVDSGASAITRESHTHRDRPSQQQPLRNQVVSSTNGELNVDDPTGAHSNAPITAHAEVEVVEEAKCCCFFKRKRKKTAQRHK
Description: as §1

HCK = molecular target: T6, HCK (Homo sapiens, UniProt P08631); experiment: Kinase screening service: HCK; format: biochemical; settings: average of duplicates
T6 construct: purchased Life Technologies Corporation (Kinase Screening Service)
Description: as §1

LTK (TYK1) = molecular target: T7, LTK (TYK1) (Homo sapiens, UniProt P29376); experiment: Kinase screening service: LTK; format: biochemical; settings: average of duplicates
T7 construct: purchased Life Technologies Corporation (Kinase Screening Service)
Description: as §1

RPS6KA3 (RSK2) = molecular target: T8, RPS6KA3 (RSK2) (Homo sapiens, UniProt P51812); experiment: Kinase screening service: RPS6KA3; format: biochemical; settings: average of duplicates
T8 construct: purchased Life Technologies Corporation (Kinase Screening Service)
Description: as §1

MAPK1 (ERK2) = molecular target: T9, MAPK1 (ERK2) (Homo sapiens, UniProt P28482); experiment: Kinase screening service: MAPK1; format: biochemical; settings: average of duplicates
T9 construct: purchased Life Technologies Corporation (Kinase Screening Service)
Description: as §1

PDK1 Direct = molecular target: T10, PDK1 Direct (Homo sapiens, UniProt O15530); experiment: Kinase screening service: PDK1 Direct; format: biochemical; settings: average of duplicates
T10 construct: purchased Life Technologies Corporation (Kinase Screening Service)
T10 sequence (O15530 whole entry): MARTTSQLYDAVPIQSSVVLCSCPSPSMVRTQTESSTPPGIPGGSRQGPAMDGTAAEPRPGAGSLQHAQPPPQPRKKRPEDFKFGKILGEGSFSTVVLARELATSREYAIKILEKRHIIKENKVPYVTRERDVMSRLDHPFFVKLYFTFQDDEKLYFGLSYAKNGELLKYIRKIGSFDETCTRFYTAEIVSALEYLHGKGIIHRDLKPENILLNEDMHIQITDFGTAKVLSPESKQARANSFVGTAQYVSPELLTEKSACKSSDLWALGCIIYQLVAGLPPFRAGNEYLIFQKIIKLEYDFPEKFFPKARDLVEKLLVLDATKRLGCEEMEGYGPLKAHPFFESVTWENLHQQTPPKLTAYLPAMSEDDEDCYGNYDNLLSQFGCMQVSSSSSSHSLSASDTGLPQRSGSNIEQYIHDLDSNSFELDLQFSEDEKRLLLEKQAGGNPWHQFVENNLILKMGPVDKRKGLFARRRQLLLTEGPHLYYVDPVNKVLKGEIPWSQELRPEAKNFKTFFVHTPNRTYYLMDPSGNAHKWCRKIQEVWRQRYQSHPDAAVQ
Description: as §1

[4] = molecular target: T11, MAP2K1 (MEK1) S218D S222D (Homo sapiens, UniProt Q02750, S218D/S222D); experiment: Kinase screening service: MAP2K1 S218D S222D; format: biochemical; settings: average of duplicates
T11 construct: purchased Life Technologies Corporation (Kinase Screening Service)
Description: as §1

SRMS (Srm) = molecular target: T12, SRMS (Srm) (Homo sapiens, UniProt Q9H3Y6); experiment: Kinase screening service: SRMS; format: biochemical; settings: average of duplicates
T12 construct: purchased Life Technologies Corporation (Kinase Screening Service)
Description: as §1

CSNK2A2 (CK2 alpha 2) = molecular target: T13, CSNK2A2 (CK2 alpha 2) (Homo sapiens, UniProt P19784); experiment: Kinase screening service: CSNK2A2; format: biochemical; settings: average of duplicates
T13 construct: purchased Life Technologies Corporation (Kinase Screening Service)
T13 sequence (P19784 whole entry): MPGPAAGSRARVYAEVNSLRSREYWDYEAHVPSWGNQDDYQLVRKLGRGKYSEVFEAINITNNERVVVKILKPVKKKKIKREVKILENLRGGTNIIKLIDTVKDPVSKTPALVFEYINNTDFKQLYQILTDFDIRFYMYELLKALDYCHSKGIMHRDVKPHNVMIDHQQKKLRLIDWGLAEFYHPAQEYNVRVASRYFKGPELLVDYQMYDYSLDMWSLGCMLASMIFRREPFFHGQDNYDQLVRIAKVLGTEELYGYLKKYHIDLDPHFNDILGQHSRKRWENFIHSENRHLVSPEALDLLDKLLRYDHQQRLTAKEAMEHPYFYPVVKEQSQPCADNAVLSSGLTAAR
Description: as §1

PRKCA (PKC alpha) = molecular target: T14, PRKCA (PKC alpha) (Homo sapiens, UniProt P17252); experiment: Kinase screening service: PRKCA; format: biochemical; settings: average of duplicates
T14 construct: purchased Life Technologies Corporation (Kinase Screening Service)
Description: as §1

ULK2 = molecular target: T15, ULK2 (Homo sapiens, UniProt Q8IYT8); experiment: Kinase screening service: ULK2; format: biochemical; settings: average of duplicates
T15 construct: purchased Life Technologies Corporation (Kinase Screening Service)
Description: as §1

PTK2B (FAK2) = molecular target: T16, PTK2B (FAK2) (Homo sapiens, UniProt Q14289); experiment: Kinase screening service: PTK2B; format: biochemical; settings: average of duplicates
T16 construct: purchased Life Technologies Corporation (Kinase Screening Service)
Description: as §1

MAP4K4 (HGK) = molecular target: T17, MAP4K4 (HGK) (Homo sapiens, UniProt O95819); experiment: Kinase screening service: MAP4K4; format: biochemical; settings: average of duplicates
T17 construct: purchased Life Technologies Corporation (Kinase Screening Service)
Description: as §1

TYRO3 (RSE) = molecular target: T18, TYRO3 (RSE) (Homo sapiens, UniProt Q06418); experiment: Kinase screening service: TYRO3; format: biochemical; settings: average of duplicates
T18 construct: purchased Life Technologies Corporation (Kinase Screening Service)
T18 sequence (Q06418 41-890): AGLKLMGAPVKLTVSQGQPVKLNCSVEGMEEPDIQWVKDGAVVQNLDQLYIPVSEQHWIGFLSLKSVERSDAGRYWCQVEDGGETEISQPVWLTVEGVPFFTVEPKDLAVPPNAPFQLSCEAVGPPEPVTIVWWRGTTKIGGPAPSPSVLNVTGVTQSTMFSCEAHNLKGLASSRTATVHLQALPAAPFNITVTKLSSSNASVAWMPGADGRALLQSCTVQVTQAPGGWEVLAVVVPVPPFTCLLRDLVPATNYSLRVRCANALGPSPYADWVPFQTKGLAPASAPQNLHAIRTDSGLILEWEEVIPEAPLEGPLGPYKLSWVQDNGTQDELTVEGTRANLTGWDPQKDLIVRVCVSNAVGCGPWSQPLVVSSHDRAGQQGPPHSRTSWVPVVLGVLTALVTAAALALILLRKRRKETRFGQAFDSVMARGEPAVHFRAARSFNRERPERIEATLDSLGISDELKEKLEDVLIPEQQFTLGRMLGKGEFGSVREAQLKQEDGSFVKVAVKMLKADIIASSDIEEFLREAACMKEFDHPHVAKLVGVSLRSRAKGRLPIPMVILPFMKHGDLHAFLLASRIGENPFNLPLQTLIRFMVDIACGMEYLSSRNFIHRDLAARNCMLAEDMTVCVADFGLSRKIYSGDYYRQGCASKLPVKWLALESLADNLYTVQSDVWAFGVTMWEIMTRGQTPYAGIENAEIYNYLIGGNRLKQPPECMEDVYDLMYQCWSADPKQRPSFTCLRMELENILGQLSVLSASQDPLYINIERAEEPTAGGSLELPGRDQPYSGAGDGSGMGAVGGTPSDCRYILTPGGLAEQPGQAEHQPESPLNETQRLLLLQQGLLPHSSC
Description: as §1

WNK2 = molecular target: T19, WNK2 (Homo sapiens, UniProt Q9Y3S1); experiment: Kinase screening service: WNK2; format: biochemical; settings: average of duplicates
T19 construct: purchased Life Technologies Corporation (Kinase Screening Service)
Description: as §1

MAPK8 (JNK1) = molecular target: T20, MAPK8 (JNK1) (Homo sapiens, UniProt P45983); experiment: Kinase screening service (Life Technologies): JNK1; format: biochemical
T20 construct: purchased Life Technologies Corporation (kinase screening service)
T20 sequence (P45983 whole entry): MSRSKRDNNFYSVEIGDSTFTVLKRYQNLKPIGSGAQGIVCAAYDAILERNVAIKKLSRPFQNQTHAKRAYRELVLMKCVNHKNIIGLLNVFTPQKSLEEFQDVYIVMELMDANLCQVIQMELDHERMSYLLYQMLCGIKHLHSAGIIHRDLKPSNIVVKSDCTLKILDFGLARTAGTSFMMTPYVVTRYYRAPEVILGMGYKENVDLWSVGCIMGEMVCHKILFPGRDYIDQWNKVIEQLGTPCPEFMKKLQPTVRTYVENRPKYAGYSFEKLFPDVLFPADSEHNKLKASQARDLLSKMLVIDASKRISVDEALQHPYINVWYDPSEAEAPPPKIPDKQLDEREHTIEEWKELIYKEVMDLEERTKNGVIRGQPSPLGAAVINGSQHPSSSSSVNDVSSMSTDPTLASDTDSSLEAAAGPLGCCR
Description: The inhibitory effect of PT109 on SGK and INK was detected by the kinase screening commercialization service of Life Technologies Corporation.
as §1

AKT2 (PKB beta) = molecular target: T21, AKT2 (PKB beta) (Homo sapiens, UniProt P31751); experiment: Kinase screening service: AKT2; format: biochemical; settings: average of duplicates
T21 construct: purchased Life Technologies Corporation (Kinase Screening Service)
Description: as §1

NEK4 = molecular target: T22, NEK4 (Homo sapiens, UniProt P51957); experiment: Kinase screening service: NEK4; format: biochemical; settings: average of duplicates
T22 construct: purchased Life Technologies Corporation (Kinase Screening Service)
Description: as §1

PRKCG (PKC gamma) = molecular target: T23, PRKCG (PKC gamma) (Homo sapiens, UniProt P05129); experiment: Kinase screening service: PRKCG; format: biochemical; settings: average of duplicates
T23 construct: purchased Life Technologies Corporation (Kinase Screening Service)
Description: as §1

WNK3 = molecular target: T24, WNK3 (Homo sapiens, UniProt Q9BYP7); experiment: Kinase screening service: WNK3; format: biochemical; settings: average of duplicates
T24 construct: purchased Life Technologies Corporation (Kinase Screening Service)
Description: as §1

CSNK1G3 (CK1 gamma 3) = molecular target: T25, CSNK1G3 (CK1 gamma 3) (Homo sapiens, UniProt Q9Y6M4); experiment: Kinase screening service: CSNK1G3; format: biochemical; settings: average of duplicates
T25 construct: purchased Life Technologies Corporation (Kinase Screening Service)
Description: as §1

TEC = molecular target: T26, TEC (Homo sapiens, UniProt P42680); experiment: Kinase screening service: TEC; format: biochemical; settings: average of duplicates
T26 construct: purchased Life Technologies Corporation (Kinase Screening Service)
Description: as §1

TAOK2 (TAO1) = molecular target: T27, TAOK2 (TAO1) (Homo sapiens, UniProt Q9UL54); experiment: Kinase screening service: TAOK2; format: biochemical; settings: average of duplicates
T27 construct: purchased Life Technologies Corporation (Kinase Screening Service)
Description: as §1

Papp at 120 min, 0.1 mg/ml ([1]; PAMPA, PBL membrane, PBS pH=7.4, 120 min, room temperature, read-out: Pe): 11.93 ± 0.08 ×10⁻⁶ cm/s
inhibition at 10 µM (CSNK1G2 (CK1 gamma 2)): 15%
inhibition at 10 µM (CDK1/cyclin B): 14%
inhibition at 10 µM [2]: 48%
inhibition at 10 µM [3]: 56%
inhibition at 10 µM (CSNK1G1 (CK1 gamma 1)): 9%
inhibition at 10 µM (HCK): 9%
inhibition at 10 µM (LTK (TYK1)): 40%
inhibition at 10 µM (RPS6KA3 (RSK2)): 54%
inhibition at 10 µM (MAPK1 (ERK2)): 4%
inhibition at 10 µM (PDK1 Direct): 51%
inhibition at 10 µM [4]: 13%
inhibition at 10 µM (SRMS (Srm)): 20%
inhibition at 10 µM (CSNK2A2 (CK2 alpha 2)): 11%
inhibition at 10 µM (PRKCA (PKC alpha)): 25%
inhibition at 10 µM (ULK2): 4%
inhibition at 10 µM (PTK2B (FAK2)): 8%
inhibition at 10 µM (MAP4K4 (HGK)): 34%
inhibition at 10 µM (TYRO3 (RSE)): 12%
inhibition at 10 µM (WNK2): 13%
IC50 (MAPK8 (JNK1)): 143 nM
inhibition at 10 µM (MAPK8 (JNK1); 10 μM, average of duplicates): 104%
inhibition at 10 µM (AKT2 (PKB beta)): 30%
inhibition at 10 µM (NEK4): 3%
inhibition at 10 µM (PRKCG (PKC gamma)): 63%
inhibition at 10 µM (WNK3): 7%
inhibition at 10 µM (CSNK1G3 (CK1 gamma 3)): 24%
inhibition at 10 µM (TEC): 26%
inhibition at 10 µM (TAOK2 (TAO1)): -6%
SMILES: O=C(CCCCC1CCSS1)NC1CCC(Nc2cccc3cnccc23)CC1 (stereo not drawn) [PT109, 5-(1,2-dithiolan-3-yl)-N-(4-(isoquinolin-5-ylamino)cyclohexyl) pentanamide]
Prediction ([1]; from Pe): CNS+ (If Pe×10^−6 cm s^−1 value is greater than 5.3, the compound is able to cross the blood-brain barrier)
